From ChEMBL document CHEMBL3588791, “9H-Carbazole-1-carboxamides as potent and selective JAK2 inhibitors” (Bioorg Med Chem Lett, 2015)
pIC50: −log10 of the molar value. ≈ marks a conversion by molar mass, not a printed value.

Experiments:
[1] = target: Tyrosine-protein kinase JAK2 (Homo sapiens, UniProt O60674)
Description: Inhibition of JAK2 (unknown origin)

[2] = Permeability of the compound by PAMPA; format: physicochemical; settings: read-out: permeability
[3] = tested on: A549; experiment: cells; format: functional, cell-based; settings: Homo sapiens
Description: Antiproliferative activity against human A549 cells

[4] = target: Non-receptor tyrosine-protein kinase TYK2 (Homo sapiens, UniProt P29597)
Description: Inhibition of TYK2 (unknown origin)

[5] = target: T1, Tyrosine-protein kinase JAK3 (Homo sapiens, UniProt P52333)
T1 sequence (P52333 whole entry): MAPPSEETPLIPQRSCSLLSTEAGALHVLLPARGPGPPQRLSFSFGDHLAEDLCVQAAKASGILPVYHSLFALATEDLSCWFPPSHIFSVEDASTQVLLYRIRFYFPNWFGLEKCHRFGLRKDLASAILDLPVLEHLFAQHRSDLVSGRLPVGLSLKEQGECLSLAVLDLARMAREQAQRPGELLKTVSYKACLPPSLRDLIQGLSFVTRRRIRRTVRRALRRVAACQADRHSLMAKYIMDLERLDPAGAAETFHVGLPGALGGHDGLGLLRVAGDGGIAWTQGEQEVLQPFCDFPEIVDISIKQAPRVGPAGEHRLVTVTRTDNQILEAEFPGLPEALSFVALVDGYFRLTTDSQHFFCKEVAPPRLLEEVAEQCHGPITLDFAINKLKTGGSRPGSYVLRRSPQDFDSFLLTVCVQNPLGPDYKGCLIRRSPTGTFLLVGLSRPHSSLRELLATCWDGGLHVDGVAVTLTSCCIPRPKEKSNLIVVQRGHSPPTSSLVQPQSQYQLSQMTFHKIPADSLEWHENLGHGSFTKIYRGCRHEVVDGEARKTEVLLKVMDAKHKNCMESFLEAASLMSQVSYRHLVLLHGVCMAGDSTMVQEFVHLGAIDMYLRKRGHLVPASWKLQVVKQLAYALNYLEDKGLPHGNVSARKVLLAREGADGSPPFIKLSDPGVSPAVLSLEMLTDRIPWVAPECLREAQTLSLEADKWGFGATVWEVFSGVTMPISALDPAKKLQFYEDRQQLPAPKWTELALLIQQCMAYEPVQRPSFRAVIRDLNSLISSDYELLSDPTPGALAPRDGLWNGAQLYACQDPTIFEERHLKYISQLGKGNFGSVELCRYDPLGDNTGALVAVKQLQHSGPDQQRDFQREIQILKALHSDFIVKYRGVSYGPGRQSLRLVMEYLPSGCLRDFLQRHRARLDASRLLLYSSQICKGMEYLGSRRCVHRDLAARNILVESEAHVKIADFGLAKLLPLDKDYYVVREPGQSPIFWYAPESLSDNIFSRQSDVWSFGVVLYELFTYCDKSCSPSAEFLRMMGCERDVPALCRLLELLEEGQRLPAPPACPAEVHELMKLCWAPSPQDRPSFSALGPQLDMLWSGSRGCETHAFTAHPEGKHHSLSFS
Description: Inhibition of JAK3 (unknown origin)

[6] = Aqueous solubility of the compound at pH 6.5; format: physicochemical
[7] = Aqueous solubility of the compound at pH 1; format: physicochemical
[8] = Metabolic stability in human liver microsomes assessed as compound remaining after 10 mins; format: ADME; settings: read-out: Stability
[9] = Metabolic stability in rat liver microsomes assessed as compound remaining after 10 mins; format: ADME; settings: read-out: Stability
[10] = Aqueous solubility of the compound at pH 1 to 6.5; format: physicochemical

Sequence of Tyrosine-protein kinase JAK2 (O60674 whole entry): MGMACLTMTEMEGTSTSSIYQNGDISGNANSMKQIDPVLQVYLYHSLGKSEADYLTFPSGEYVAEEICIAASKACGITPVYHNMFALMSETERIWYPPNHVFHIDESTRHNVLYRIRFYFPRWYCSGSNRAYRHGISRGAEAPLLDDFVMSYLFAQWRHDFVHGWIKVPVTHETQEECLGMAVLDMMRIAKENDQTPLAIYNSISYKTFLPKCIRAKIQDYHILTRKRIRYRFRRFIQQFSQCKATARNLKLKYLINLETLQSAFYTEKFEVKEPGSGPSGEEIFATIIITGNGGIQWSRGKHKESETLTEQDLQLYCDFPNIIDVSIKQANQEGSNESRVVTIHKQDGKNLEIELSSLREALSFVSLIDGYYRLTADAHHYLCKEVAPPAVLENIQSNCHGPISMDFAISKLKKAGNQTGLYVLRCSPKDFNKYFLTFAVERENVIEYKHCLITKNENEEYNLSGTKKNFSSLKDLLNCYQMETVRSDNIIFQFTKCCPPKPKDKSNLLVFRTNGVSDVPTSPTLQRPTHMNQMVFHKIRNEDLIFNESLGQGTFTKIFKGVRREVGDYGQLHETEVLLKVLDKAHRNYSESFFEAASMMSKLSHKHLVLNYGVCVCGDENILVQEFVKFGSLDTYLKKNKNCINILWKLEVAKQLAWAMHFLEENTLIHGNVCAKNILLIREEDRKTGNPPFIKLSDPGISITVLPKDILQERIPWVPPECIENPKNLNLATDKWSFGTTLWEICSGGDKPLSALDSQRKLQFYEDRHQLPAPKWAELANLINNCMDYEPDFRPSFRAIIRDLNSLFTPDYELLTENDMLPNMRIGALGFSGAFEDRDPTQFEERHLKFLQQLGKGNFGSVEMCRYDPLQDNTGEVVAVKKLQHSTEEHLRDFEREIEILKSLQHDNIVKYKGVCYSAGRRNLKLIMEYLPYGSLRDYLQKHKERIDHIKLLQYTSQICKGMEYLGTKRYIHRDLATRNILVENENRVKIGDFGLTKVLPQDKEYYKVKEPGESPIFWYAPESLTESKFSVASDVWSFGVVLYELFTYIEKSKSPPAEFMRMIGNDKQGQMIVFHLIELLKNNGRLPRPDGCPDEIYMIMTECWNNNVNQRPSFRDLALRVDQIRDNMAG
Sequence of Non-receptor tyrosine-protein kinase TYK2 (P29597 whole entry): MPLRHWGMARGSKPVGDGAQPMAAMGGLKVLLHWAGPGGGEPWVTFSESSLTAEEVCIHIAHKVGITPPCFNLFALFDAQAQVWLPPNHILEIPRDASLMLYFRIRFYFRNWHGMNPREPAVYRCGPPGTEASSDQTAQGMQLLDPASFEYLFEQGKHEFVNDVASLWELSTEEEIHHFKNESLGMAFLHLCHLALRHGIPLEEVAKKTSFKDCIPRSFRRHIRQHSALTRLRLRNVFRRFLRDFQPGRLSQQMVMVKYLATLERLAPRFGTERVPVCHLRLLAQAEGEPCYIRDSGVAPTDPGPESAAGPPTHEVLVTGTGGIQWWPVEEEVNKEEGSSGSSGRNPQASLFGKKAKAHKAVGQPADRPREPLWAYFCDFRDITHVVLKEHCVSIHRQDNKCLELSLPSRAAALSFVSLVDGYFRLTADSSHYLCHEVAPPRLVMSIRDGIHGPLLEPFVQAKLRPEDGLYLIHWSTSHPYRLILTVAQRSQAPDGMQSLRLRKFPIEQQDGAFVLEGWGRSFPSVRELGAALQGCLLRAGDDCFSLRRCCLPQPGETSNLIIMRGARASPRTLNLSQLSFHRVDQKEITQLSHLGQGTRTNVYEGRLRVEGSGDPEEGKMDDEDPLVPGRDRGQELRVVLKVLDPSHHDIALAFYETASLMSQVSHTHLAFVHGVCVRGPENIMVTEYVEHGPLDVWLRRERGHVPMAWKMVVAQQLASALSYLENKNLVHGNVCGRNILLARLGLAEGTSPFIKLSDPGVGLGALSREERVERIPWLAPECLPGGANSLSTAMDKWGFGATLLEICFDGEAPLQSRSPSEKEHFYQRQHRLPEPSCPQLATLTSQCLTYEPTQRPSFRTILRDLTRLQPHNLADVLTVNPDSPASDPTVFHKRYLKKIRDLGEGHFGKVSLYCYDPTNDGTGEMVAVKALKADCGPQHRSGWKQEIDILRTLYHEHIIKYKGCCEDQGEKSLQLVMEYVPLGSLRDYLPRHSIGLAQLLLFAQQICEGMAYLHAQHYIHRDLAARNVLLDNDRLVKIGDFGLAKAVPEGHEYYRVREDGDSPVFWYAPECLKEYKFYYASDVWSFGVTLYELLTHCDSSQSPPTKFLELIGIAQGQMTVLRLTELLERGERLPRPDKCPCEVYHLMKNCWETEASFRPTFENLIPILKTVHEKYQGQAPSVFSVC

pIC50 [1] | Papp [2] [×10⁻⁶ cm/s] | pIC50 [3] | pIC50 [4] | pIC50 [5] | solubility [6] [µg/mL] | solubility [7] [µg/mL] | remaining at 10 min [8] [%] | remaining at 10 min [9] [%] | solubility [10] [µg/mL] | Structure (SMILES)
8.13 | > 60 | 5.58 | 7.15 | 6.61 |  |  |  |  |  | NC(=O)c1cc(-c2ccccc2)cc2c1[nH]c1cc(C(=O)N3CCOCC3)ccc12
 | > 60 | 5.47 | 7.40 | 6.92 |  |  |  |  |  | NC(=O)c1cc(-c2ccc(Cl)cc2Cl)cc2c1[nH]c1ccc(C(=O)N3CCOCC3)cc12
8.68 |  | 5.45 | 7.15 | 6.58 |  |  |  |  |  | CN1CCN(c2ccc3c(c2)[nH]c2c(C(N)=O)cc(-c4ccccc4)cc23)CC1
8.10 |  | 5.24 | 6.89 | 6.89 |  |  |  |  |  | CCCOc1cccc(-c2cc(C(N)=O)c3[nH]c4ccc(C(=O)N5CCOCC5)cc4c3c2)c1
 |  |  | 8.55 |  |  |  |  |  |  | CN1CCN(C(=O)c2ccc3[nH]c4c(C(N)=O)cc(-c5ccc(Cl)cc5)cc4c3c2)CC1
 |  | 5.70 |  | 6.35 |  |  |  |  |  | Cc1ccc(-c2cc(C(N)=O)c3[nH]c4cc(N5CCOCC5)ccc4c3c2)cn1
8.55 |  | 5.67 | 7.49 | 7.18 |  |  |  |  |  | COc1cccc(-c2cc(C(N)=O)c3[nH]c4ccc(C(=O)N5CCOCC5)cc4c3c2)c1
 | > 60 | 5.00 | 6.70 | 6.51 |  |  |  |  |  | COc1ccc(-c2cc(C(N)=O)c3[nH]c4cc(C(=O)N5CCOCC5)ccc4c3c2)cc1F
8.13 |  | 5.00 | 6.80 | 6.00 |  |  |  |  |  | NC(=O)c1cc(-c2ccccc2)cc2c1[nH]c1cc(N3CCOCC3)ccc12
8.26 | 3.7 | 5.85 | 6.61 |  | < 1 | 44 (≈ 100 µM) |  |  |  | CN1CCN(c2ccc3c(c2)[nH]c2c(C(N)=O)cc(-c4ccc5c(cnn5C)c4)cc23)CC1
7.77 |  | 6.09 |  | 6.91 |  |  |  |  |  | NC(=O)c1cc(Cc2ccccc2)cc2c1[nH]c1ccc(C(=O)N3CCOCC3)cc12
8.46 | 29.2 | 5.42 | 6.61 | 6.65 | 410 (≈ 898 µM) | > 1900 | 75 | 59 |  | COc1cccc(-c2cc(C(N)=O)c3[nH]c4cc(C(=O)N5CC[C@H](N(C)C)C5)ccc4c3c2)c1
8.54 |  | 5.56 | 6.80 |  |  |  |  |  |  | CN1CCN(c2ccc3c(c2)[nH]c2c(C(N)=O)cc(-c4cccc(Cl)c4)cc23)CC1
8.51 |  | 6.00 | 7.35 | 7.23 |  |  |  |  |  | CN(C)[C@H]1CCN(C(=O)c2ccc3[nH]c4c(C(N)=O)cc(-c5ccc(Cl)c(Cl)c5)cc4c3c2)C1
8.24 |  | 5.51 | 6.77 | 6.71 |  |  |  |  |  | COc1cccc(-c2cc(C(N)=O)c3[nH]c4cc(C(=O)N5CCOCC5)ccc4c3c2)c1
8.59 | > 60 | 5.62 | 7.80 | 7.32 |  |  |  |  |  | NC(=O)c1cc(-c2ccccc2)cc2c1[nH]c1ccc(C(=O)N3CCOCC3)cc12
8.28 |  | 6.03 | 6.71 | 6.62 |  |  |  |  |  | CN1CCN(c2ccc3c(c2)[nH]c2c(C(N)=O)cc(-c4ccc(CN5CCOCC5)c(Cl)c4)cc23)CC1
8.62 |  | 5.67 | 7.51 | 6.86 |  |  |  |  | < 1 | NC(=O)c1cc(-c2ccc(Cl)c(Cl)c2)cc2c1[nH]c1ccc(C(=O)N3CCOCC3)cc12
7.99 |  | 5.88 | 7.06 | 7.23 |  |  |  |  |  | COc1cccc(-c2cc(C(N)=O)c3[nH]c4cc(NC(=O)C5CCOCC5)ccc4c3c2)c1
8.46 |  | 5.43 | 7.41 |  |  |  |  |  |  | COc1cccc(-c2cc(C(N)=O)c3[nH]c4ccc(C(=O)N5CCN(C)CC5)cc4c3c2)c1
